What all share (assay): ITC
(In general: In ITC the heat of successive injections is recorded.)

For assay [1], the system named is Aai full-length NAD+-I (nadA) riboswitch, 100-mer (RNA, riboswitch) GGCUGCAACAUCCCCGUGGGUUGGACGGCGAAAGCCGUAGCGAAUCCACUGCAGCCUGUAUGGCUUUCAACAUCCCCGUCCGCGAAAGCGGACUGAAGGC
For assay [2], the system named is Aca domain I split construct (dom I; 28-mer + 22-mer) (RNA, riboswitch) GGGCGCAACAUCCCCGCCGGUUGGGCGC/GCGCAGUGAACCGGCUGCGUCC
Conditions: 100 mM NaCl, 20 mM MgCl2, 0.10 M Na-HEPES pH 7.0, 10 °C, 1:1 model, apparent.

Assay [3] deals with Aca domain II split construct (dom II; 28-mer + 20-mer) (RNA, riboswitch) GCUUUCAACAUCCCCGUCCCGGGCGGAG/CUCCGCAGUGGACUGAAGGC
Conditions: 100 mM NaCl, 20 mM MgCl2; 0.10 M Na-HEPES pH 7.0, 10 °C; ligand in syringe 0.40–0.63 mM.

The mark [4] stands for this setting: 100 mM NaCl, 20 mM MgCl2, 0.10 M Na-HEPES pH 7.0, 10 °C, 1:1 model, apparent.

On to `Nc1ncnc2c1ncn2[C@@H]1O[C@H](COP(=O)(O)OP(=O)(O)OP(=O)(O)O)[C@@H](O)[C@H]1O`, for which the KD in assay [1] (setting [4]) turned out to be 11.0 ± 3.5 µM.

`Nc1ncnc2c1ncn2[C@@H]1O[C@H](COP(=O)(O)OP(=O)(O)O)[C@@H](O)[C@H]1O`: the KD is 11.1 ± 0.6 µM in assay [2] and 9.7 ± 1.1 µM in assay [1] (setting [4]).

For `NC(=O)c1ncn([C@@H]2O[C@H](COP(=O)(O)OP(=O)(O)OC[C@H]3O[C@@H](n4cnc5c(N)ncnc54)[C@H](O)[C@@H]3O)[C@@H](O)[C@H]2O)n1`, the figures for the KD in assay [2] (error printed ± 7.1) and in assay [1] (setting [4]) were 21.9 ± 8.4 µM and 30.2 ± 1.2 µM, respectively.

Turning to `NC(=O)C1=CN([C@@H]2O[C@H](COP(=O)(O)OP(=O)(O)OC[C@H]3O[C@@H](n4cnc5c(N)ncnc54)[C@H](O)[C@@H]3O)[C@@H](O)[C@H]2O)C=CC1`, the KD in assay [2] was 55.5 ± 3.6 µM; in assay [1] (setting [4]) it was 59.7 ± 2.2 µM. For the same compound, the binding entry in assay [3] is given as “no”.

`NC(=O)c1ccc[n+]([C@@H]2O[C@H](COP(=O)(O)OP(=O)(O)OC[C@H]3O[C@@H](n4cnc5c(N)ncnc54)[C@H](O)[C@@H]3O)[C@@H](O)[C@H]2O)c1`: the KD turned out to be 24.6 ± 8.4 µM in assay [2]; 31.5 ± 1.5 µM in assay [1] (setting [4]); 18.2 ± 2.1 µM in assay [1] (K+ (KCl replacing NaCl), KCl-containing ITC buffer, 10 °C, no significant change from Na+). The binding entry in assay [3] is “no”.

These data come from article PMC10702441 (2023).
